This note sets out measurements from ChEMBL document CHEMBL1201862, “PubChem BioAssay data set” (2004).

Common to all, as to assay: NCI tumour cell line growth inhibition, 48 h
In assay [1] the test system is Hs-578T.
The test system of assay [2] is RPMI-8226.
For assay [3], the system named is SF-295.
The subject of assay [4] is OVCAR-5.
Assay [5] has as its system SR.
Assay [6] concerns MOLT-4.
Assay [7] concerns IGROV-1.
In assay [8] the test system is MCF7.
Assay [9] deals with TK-10.
Assay [10] concerns MDA-MB-231.
For assay [11], the system named is M14.
The test system of assay [12] is A498.
Assay [13] has as its system SK-OV-3.
Assay [14] deals with MDA-N.
The test system of assay [15] is LOX IMVI.
Assay [16] relates to HCT-15.
The test system of assay [17] is SN12C.
Assay [18] concerns SK-MEL-28.
The subject of assay [19] is OVCAR-3.
Assay [20] deals with UACC-257.

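Test compounds were applied to cells in 96-well plates for 48 hours at 5 doses. GI50: concentration for 50% inhibition of growth.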 The source made the active and inactive calls. No stated cut-off is given here; in the data, active = GI50 up to about 1.1 µM and inactive = higher. A value given as a limit tells only on which side of the number the result lay.

On to `CC(=O)OCCCOCn1c(Cc2ccccc2)c(C)c(=O)[nH]c1=O`, for which the GI50 in [1], in assay [2], in assay [3], in [4], in [5] and in assay [6] was > 100 µM (inactive) each time. Further, the GI50 in assay [7], in assay [8], in assay [9], in assay [10], in [11] and in assay [12] was > 100 µM (inactive) each time. Besides, the GI50 was > 100 µM (inactive) in assay [13]; > 100 µM (inactive) in assay [14]; > 100 µM (inactive) in assay [15]; above 100 µM in assay [16]; > 100 µM (inactive) in assay [17]; > 100 µM (inactive) in assay [18]. The GI50 in assay [19] and in [20] was > 100 µM (inactive) in each case.
For `CN(C)CC1CCC/C(=C\c2ccc(Cl)cc2)C1=O` (stereo not given), the GI50 in assay [1] was 2.92 µM (inactive); in [2], 0.254 µM (active); in assay [3], 14.2 µM (inactive); in assay [4], 16.9 µM (inactive); in assay [5], 1.33 µM (inactive); in assay [6], 0.9 µM (active). Further, the GI50 in [7] is 3.21 µM (inactive); in assay [8] it was 1.24 µM (inactive); in assay [9], 3.9 µM (inactive); in [10] it was 3.05 µM (inactive); in [11] it was 2.28 µM (inactive); in [12], 17.3 µM (inactive). Besides, the GI50 in [13] was 10.9 µM (inactive); in assay [14] it was 1.94 µM (inactive); in [15] it was 1.63 µM (inactive); in [16] it was 2.05 µM; in assay [17], 3.33 µM (inactive); in assay [18], 3.46 µM (inactive). Moreover, the GI50 in [19] was 3.21 µM (inactive); in [20], 4.91 µM (inactive).
Turning to `Nc1ccc2c(=S)c3ccccc3[nH]c2c1`, the GI50 in [1] is 55.6 µM (inactive); in [2] it was 13.8 µM (inactive); in assay [3], 26.4 µM (inactive); in assay [4], > 61.2 µM (inactive); in assay [5] it was 25.1 µM (inactive); in [6], 18.7 µM (inactive). For the same compound, the GI50 is 28 µM (inactive) in assay [7]; 20.1 µM (inactive) in assay [8]; > 53.6 µM (inactive) in assay [9]; 28.2 µM (inactive) in assay [10]; 20.2 µM (inactive) in [11]; 61.7 µM (inactive) in assay [12]. Also, the GI50 was 22.2 µM (inactive) in [13]; 46.8 µM (inactive) in assay [14]; 26.4 µM (inactive) in assay [15]; 24.2 µM in assay [16]; > 77.6 µM (inactive) in assay [17]; 43.1 µM (inactive) in [18]. In addition, the GI50 in assay [19] is 28.2 µM (inactive); in assay [20], 44.5 µM (inactive).
